Molecular target: hCA II
Test: not given
Conditions: human recombinant isozyme, Table 2; cited from earlier work
For `NS(=O)(=O)NCCNc1nonc1C(=NO)Nc1ccc(F)c(Br)c1` [EPA, epacadostat], the Ki is given as 917 nM. For `NC(N)=Nc1nc(CSCCC(N)=NS(N)(=O)=O)cs1` [FAM, famotidine], the Ki is given as 58 nM.

Molecular target: T1, SauBCA (β-carbonic anhydrase from Staphylococcus aureus) (Staphylococcus aureus, UniProt A0AAJ4SIE8)
T1 sequence (A0AAJ4SIE8 1-189): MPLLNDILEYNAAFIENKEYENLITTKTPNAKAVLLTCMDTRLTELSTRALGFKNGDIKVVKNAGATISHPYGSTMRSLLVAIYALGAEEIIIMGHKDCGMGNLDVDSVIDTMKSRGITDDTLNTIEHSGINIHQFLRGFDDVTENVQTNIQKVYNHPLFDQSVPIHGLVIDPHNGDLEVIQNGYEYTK
Test: Stopped-flow CO2 hydration inhibition assay, SauBCA
Format: biochemical
Conditions: Ki SauBCA, recombinant SauBCA, stopped-flow CO2 hydration, mean from three assays, errors ±5–10%
Method: An Applied Photophysics stopped-flow instrument was used for assaying CA-catalysed CO2 hydration activity. […] Six traces of the initial 5 − 10% of the reaction were used to determine the initial velocity. The uncatalysed rates were determined in the same manner and subtracted from the total observed rates. A stock solution of inhibitor (0.1 mM) was prepared in distilled-deionized water, and dilutions of up to 0.01 nM were prepared thereafter with distilled-deionized water. Inhibitor (I) and enzyme (E) solutions were preincubated together for 15 min at RT prior to the assay to allow formation of the E − I complex. Inhibition constants were obtained by using the Cheng-Prusoff equation and nonlinear least squares methods (with PRISM 3) and are presented as the means from at least three different determinations. Kinetic constants were obtained using Lineweaver-Burke plots as reported earlier.
`Nc1ccc(S(N)(=O)=O)cc1` [compound 2] gave a Ki of 409 nM.

Same assay, conditions: read-out: Ki SauBCA
For `CCN[C@H]1CN(CCCOC)S(=O)(=O)c2sc(S(N)(=O)=O)cc21` [BRZ, brinzolamide], the Ki was 815 nM. For `Cc1ccc(-c2cc(C(F)(F)F)nn2-c2ccc(S(N)(=O)=O)cc2)cc1` [CLX, celecoxib], the Ki was 871 nM. `CC(=O)/N=c1/sc(S(N)(=O)=O)nn1C` [MZA, methazolamide] showed a Ki of 863 nM. Work on `CC1(C)O[C@@H]2[C@@H](CO[C@@]3(COS(N)(=O)=O)OC(C)(C)O[C@@H]23)O1` [TPM] yielded a Ki of 466 nM. Compound `Cc1onc(-c2ccccc2)c1-c1ccc(S(N)(=O)=O)cc1` [VLX] has a Ki of 509 nM. For `NS(=O)(=O)Cc1noc2ccccc12` [ZNS, zonisamide], the Ki was 4550 nM. With `Nc1nccc(Nc2ccc(S(N)(=O)=O)cc2)n1` [compound 19] the Ki was 909 nM.

Same assay, conditions: recombinant SauBCA, stopped-flow CO2 hydration, mean from three assays, errors ±5–10%; read-out: Ki SauBCA
In the case of `NS(=O)(=O)NCCNc1nonc1C(=NO)Nc1ccc(F)c(Br)c1` [EPA, epacadostat], the Ki is reported as 538 nM. Compound `O=C1NS(=O)(=O)c2ccccc21` [SAC] has a Ki of 667 nM. Compound `NS(=O)(=O)c1cccc(S(N)(=O)=O)c1` [compound 3] has a Ki of 95 nM. `Cc1ccc(S(N)(=O)=O)cc1` [compound 4] showed a Ki of 83 nM. `NCc1ccc(S(N)(=O)=O)cc1` [compound 5] gave a Ki of 193 nM. Work on `Nc1ccc(S(N)(=O)=O)cc1Cl` [compound 8] yielded a Ki of 95 nM. `Nc1ccc(S(N)(=O)=O)cc1Br` [compound 9] showed a Ki of 75 nM. `NS(=O)(=O)c1cc(Cl)cc(Cl)c1O` [compound 10] gave a Ki of 202 nM. In the case of `Nc1nnc(S(N)(=O)=O)s1` [compound 13], the Ki is reported as 417 nM. `NS(=O)(=O)c1ccc(CO)cc1` [compound 16] showed a Ki of 603 nM. For `Nc1ccc(S(=O)(=O)Nc2nnc(S(N)(=O)=O)s2)cc1` [compound 20], the Ki was 92 nM. Work on `NS(=O)(=O)c1ccc(CCNS(=O)(=O)c2ccc([N+](=O)[O-])cc2CO)cc1` [compound 21] yielded a Ki of 85 nM. `Nc1ccc(S(=O)(=O)Nc2ccc(S(N)(=O)=O)cc2)cc1` [compound 22] gave a Ki of 83 nM. `Nc1ccc(S(=O)(=O)NCc2ccc(S(N)(=O)=O)cc2)cc1` [compound 23] gave a Ki of 92 nM. With `Nc1ccc(S(=O)(=O)NCCc2ccc(S(N)(=O)=O)cc2)cc1` [compound 24] the Ki was 96 nM.
